Experiment [1] has as its system OVCAR-3 ovarian cancer cells. The experiment can be described thus: Cell growth, methylene blue uptake (Experiment VI). In kind it is cell-based, human. Particulars: 200 nM VID400 with calcitriol. As for the experimental part:
Culture conditions were the same as for Experiment I. Cell growth was measured using uptake of methylene blue (0.5% in 50% ethanol), followed by air drying and release of the dye in 1% sodium N-lauroyl sarcosine in PBS.

The target of experiment [2] is T1, 24-hydroxylase (Homo sapiens, UniProt Q07973).
T1 sequence (Q07973 36-514): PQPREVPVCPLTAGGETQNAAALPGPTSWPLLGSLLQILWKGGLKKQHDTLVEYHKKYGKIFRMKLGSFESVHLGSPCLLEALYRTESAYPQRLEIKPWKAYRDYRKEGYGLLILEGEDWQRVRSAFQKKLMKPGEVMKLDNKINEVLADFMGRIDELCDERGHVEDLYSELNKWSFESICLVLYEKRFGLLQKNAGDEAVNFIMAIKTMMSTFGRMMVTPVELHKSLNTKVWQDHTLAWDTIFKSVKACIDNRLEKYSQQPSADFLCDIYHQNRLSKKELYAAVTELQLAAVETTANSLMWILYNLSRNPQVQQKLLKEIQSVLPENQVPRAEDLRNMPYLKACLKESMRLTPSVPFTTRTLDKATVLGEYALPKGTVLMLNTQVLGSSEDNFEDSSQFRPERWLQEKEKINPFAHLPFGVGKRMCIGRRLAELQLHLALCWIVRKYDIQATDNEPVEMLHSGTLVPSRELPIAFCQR
Particulars: Schuster et al., J. Cell. Biochem. 88:372-380 (2003); cited from earlier work.

With `O=C(NC[C@@H](c1ccccc1)n1ccnc1)c1ccc(-c2ccc(Cl)cc2)cc1` [VID400, 2-(R)-4′-Chlorobiphenyl-4-carboxylic acid (2-imidazol-1-yl-2-phenyl-ethyl)-amide], the “effect on cell growth” value in experiment [1] is reported as “produced a further inhibition which was synergistic with calcitriol”. The “inhibition of 24-hydroxylase” value in experiment [2] is “potent inhibitors of 24-hydroxylase”.
